This is an account of results in patent US9018219B2, “Fused aminodihydropyrimidine derivative” (Shionogi & Co., Ltd., priority 2010, dated 2015).

In one data set the target is T1, Recombinant human BACE-1 (Homo sapiens, UniProt P56817).
T1 construct: purchased R&D Systems
In words: Assay of BACE1 inhibitory activity. It is filed as biochemical. As to conditions: Recombinant human BACE1 7.4 nmol/L, substrate peptide 18 nmol/L, pH 5.0, 30° C. for 3 hours; read-out: IC50 (50% inhibitory concentration against the enzymatic activity). The method, then:
48.5 μL of substrate peptide solution (Biotin-XSEVNLDAEFRHDSGC-Eu: X=ε-amino-n-capronic acid, Eu=Europium cryptate) was added to each well of 96-hole half-area plate (a black plate: Costar), and after addition of 0.5 μl of the compound of the present invention (N,N′-dimethylformamide solution) and 1 μl of Recombinant human BACE-1 (R&D Systems), the reaction mixture was incubated at 30° C. for 3 hours. The substrate peptide was synthesized by reacting Cryptate TBPCOOH mono SMP (CIS bio international) with Biotin-XSEVNLDAEFRHDSGC (Peptide Institute, Inc.). The final concentrations of the substrate peptide and Recombinant human BACE1 were adjusted to 18 nmol/L and 7.4 nmol/L, respectively, and the reaction was performed in sodium acetate buffer (50 mmol/L sodium acetate, pH 5.0, 0.008% Triton X-100). After the incubation for reaction, 50 μl of 8.0 μg/ml Streptavidin-XL665 (CIS bio international) dissolved in phosphate buffer (150 mmol/L K2HPO4—KH2PO4, pH 7.0, 0.008% Triton X-100, 0.8 mol/L KF) was added to each well and left stand at 30° C. for 1 hour. After then, fluorescence intensity was measured (excitation wavelength: 320 nm, measuring wavelength: 620 nm and 665 nm) using Wallac 1420 multilabel counter (Perkin Elmer life sciences). Enzymatic activity was determined from counting ratio of each wavelength (10,000×Count 665/Count 620) and 50% inhibitory concentration against the enzymatic activity (IC50) was calculated.

The subject of data set [1] is Neuroblastoma SH-SY5Y cells (SH/APPwt) with human wild-type β-APP excessively expressed. Put plainly: Measurement of β-amyloid (Aβ) production inhibiting effect in cell. As to conditions: 24 hours incubation, Amyloid β 1-40 HTRF in culture supernatant, read-out: IC50 (amount needed to inhibit Aβ production by 50%). It is filed as cell-based. The method, then:
Neuroblastoma SH-SY5Y cells (SH/APPwt) with human wild-type β-APP excessively expressed therein were prepared at 8×10^5 cells/mL, and 150 μl portions thereof were inoculated into each well of a 96-well culture plate (Falcon). The cells were cultured for 2 hours at 37° C. in a 5% gaseous carbon dioxide incubator. Then, a solution which have been preliminarily prepared by adding and suspending the compound of the present invention (DMSO (dimethyl sulfoxide) solution) so as to be 2 μl/50 μl medium was added to the cell sap. Namely, the final DMSO concentration was 1%, and the amount of the cell culture was 200 μl. After the incubation was performed for 24 hours from the addition of the test compound, 100 μl of the culture supernatant was collected from each fraction. The amount of the Aβ in each fraction was measured.
The Aβ amount was measured as follows. 10 μl of a homogeneous time resolved fluorescence (HTRF) measurement reagent (Amyloid β 1-40 peptide; IBA Molecular Holding, S.A.) and 10 μl of the culture supernatant were put into a 384-well half area microplate (black microplate, Costar) and mixed with each other, and then left standing overnight at 4° C. while the light was shielded. Then, the fluorescence intensity (excitation wavelength: 337 nm, measurement wavelength: 620 nm and 665 nm) was measured with Wallac 1420 multilabel counter (Perkin Elmer life sciences). The Aβ amount was determined from the count rate at each measurement wavelength (10000×Count 665/Count 620), and the amount needed to inhibit Aβ production by 50% (IC50) was calculated from at least six different dosages.

Data set [2] can be described thus: Solubility test (turbidity, Test Example 7-1). It is filed as physicochemical. As to conditions: pH 6.8, aqueous buffer, kinetic from dmso stock; JP-II medium, 2% DMSO, turbidity after 4 hours; read-out: solubility assessed by 3 stages. The protocol: A 2-fold dilution series (12 points) of a 10 mM solution of a compound of the present invention in DMSO was added to a medium (JP-I, JP-II) (2%), and solubility was assessed by 3 stages (High; >40 μM, Medium; 3-40 Low; <3 μM) from a turbidity after 4 hours.

The next data set addresses CYP3A4 (Homo sapiens, UniProt P08684). Put plainly: CYP3A4 fluorescent MBI test. It counts as in vitro ADME. Also on record: host or cells: Escherichia coli. To be noted: 7-BFC substrate, pre-reaction 0 or 30 minutes, CYP3A4 expressed in Escherichia coli. The method, then:
The CYP3A4 fluorescent MBI test is a test of investigating enhancement of CYP3A4 inhibition of the compound of the present invention by a metabolism reaction. 7-benzyloxytrifluoromethylcoumarin (7-BFC) is debenzylated by the CYP3A4 enzyme (enzyme expressed in Escherichia coli) and a metabolite, 7-hydroxytrifluoromethylcoumarin (7-HFC) which emits fluorescent light is produced. The test is performed using 7-HFC production reaction as an index.
The reaction conditions are as follows: substrate, […] 7-BFC; pre-reaction time, 0 or 30 minutes; reaction time, 15 minutes; reaction temperature, 25° C. […]
An enzyme in a K-Pi buffer (pH 7.4) and the compound of the present invention solution as a pre-reaction solution were added to a 96-well plate at the composition of the pre-reaction, a part of it was transferred to another 96-well plate so that it was 1/10 diluted by a substrate in a K-Pi buffer, NADPH as a co-factor was added to initiate a reaction as an index (without preincubation) and, after a predetermined time of a reaction, acetonitrile/0.5 mol/L Tris (trishydroxyaminomethane)=4/1 was added to stop the reaction. […] For the plate on which each index reaction had been performed, a fluorescent value of 7-HFC which is a metabolite was measured with a fluorescent plate reader. […]

A short description of data set [3]: Brain distribution studies. It counts as in vivo. To be noted: brain/plasma; rat, intravenous 0.5 mg/mL/kg, 30 minutes later; read-out: brain Kp value (area ratio brain/plasma). The protocol: Compound of the present invention is intravenously administered to a rat at 0.5 mg/mL/kg dosage.
The brain is enucleated and 20-25% of homogenate thereof is prepared with distilled water.
The obtained blood is used as plasma after centrifuging. To the brain sample is added the control plasma at 1:1. To the plasma samples is added the control brains at 1:1. Each sample is measured using LC/MS/MS. The obtained area ratio (a brain/plasma) is used for the brain Kp value.

T1 sequence (P56817 46-501): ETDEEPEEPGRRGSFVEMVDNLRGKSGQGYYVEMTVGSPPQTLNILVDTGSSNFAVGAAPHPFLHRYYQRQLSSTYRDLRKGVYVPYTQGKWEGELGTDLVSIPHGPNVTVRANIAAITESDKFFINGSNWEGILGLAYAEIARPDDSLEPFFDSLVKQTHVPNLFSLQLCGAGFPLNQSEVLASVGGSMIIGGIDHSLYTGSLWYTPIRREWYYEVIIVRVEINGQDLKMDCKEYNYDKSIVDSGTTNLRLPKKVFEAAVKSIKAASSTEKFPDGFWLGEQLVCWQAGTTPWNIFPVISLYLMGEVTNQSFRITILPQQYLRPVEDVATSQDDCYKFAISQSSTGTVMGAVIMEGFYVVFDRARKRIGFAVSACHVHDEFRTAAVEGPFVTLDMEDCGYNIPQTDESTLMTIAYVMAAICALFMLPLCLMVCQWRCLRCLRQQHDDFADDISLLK
Chain of CYP3A4 (P08684 whole entry): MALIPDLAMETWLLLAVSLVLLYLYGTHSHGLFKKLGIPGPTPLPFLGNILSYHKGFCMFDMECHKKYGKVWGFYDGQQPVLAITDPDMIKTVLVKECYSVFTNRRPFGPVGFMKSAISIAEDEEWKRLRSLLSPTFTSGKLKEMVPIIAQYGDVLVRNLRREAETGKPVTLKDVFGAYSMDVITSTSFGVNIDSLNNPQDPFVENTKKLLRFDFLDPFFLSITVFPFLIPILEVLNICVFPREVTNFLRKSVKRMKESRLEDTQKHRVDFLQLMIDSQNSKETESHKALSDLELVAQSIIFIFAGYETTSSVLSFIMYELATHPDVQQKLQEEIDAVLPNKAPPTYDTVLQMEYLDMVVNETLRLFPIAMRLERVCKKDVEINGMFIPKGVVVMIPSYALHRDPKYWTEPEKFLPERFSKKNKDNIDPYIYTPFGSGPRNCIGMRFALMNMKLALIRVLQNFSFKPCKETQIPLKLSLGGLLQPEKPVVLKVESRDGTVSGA

Turning to `C[C@@]1(c2cc(NC(=O)c3ccc(C#N)cn3)ccc2F)Cc2nccn2C(N)=N1` [Compound I-1], the IC50 (at Recombinant human BACE-1; in data set [1]) was at most 1 µM in each case. Besides, the solubility at 4 h in data set [2] is above 40 µM. Further, on CYP3A4, the “CYP3A4 fluorescent MBI: difference between IC50 values without and with preincubation” value was “(−) (when the difference is 3 μM or less, this was defined as (−))”.
In the case of `C[C@@]1(c2cc(NC(=O)c3ccc(C#N)cn3)ccc2F)Cc2ccnn2C(N)=N1` [Compound I-3], the IC50 at Recombinant human BACE-1 is 0.036 µM; in data set [1], 0.003 µM.
For `CC#Cc1cncc(-c2csc([C@]3(C)Cc4nccn4C(N)=N3)c2)c1` [Compound I-4], in that order: at most 1 µM and at most 1 µM.
`CC1(c2cc(NC(=O)c3ccc(C#N)cn3)ccc2F)Cc2cncn2C(N)=N1` (stereo not shown) [Compound I-6]: the IC50 (at Recombinant human BACE-1; in data set [1]) was at most 1 µM each time.
In the case of `CC1(c2cc(-c3cccnc3F)ccc2F)Cc2cncn2C(N)=N1` (stereo not shown) [Compound I-7], the IC50 (on Recombinant human BACE-1; in data set [1]) was at most 1 µM each time. Further, in data set [3], the Kp at 0.5 h came out at 1.7.
